Reference: ChEMBL document CHEMBL4680240, “Tail approach synthesis of novel benzenesulfonamides incorporating 1,3,4-oxadiazole hybrids as potent inhibitor of carbonic anhydrase I, II, IX, and XII isoenzymes” (Eur J Med Chem, 2020)

Assays:
Carbonic anhydrase 9 = Carbonic anhydrase 9 (Homo sapiens, UniProt Q16790); assay: Inhibition of recombinant human carbonic anhydrase 9 incubated for 10 mins prior to testing measured for 5 to 10 secs by phenol red-based stopped-flow CO2 hydration assay
Carbonic anhydrase 12 = Carbonic anhydrase 12 (Homo sapiens, UniProt O43570); assay: Inhibition of recombinant human carbonic anhydrase 12 incubated for 10 mins prior to testing measured for 5 to 10 secs by phenol red-based stopped-flow CO2 hydration assay
Sequence of Carbonic anhydrase 12 (O43570 whole entry): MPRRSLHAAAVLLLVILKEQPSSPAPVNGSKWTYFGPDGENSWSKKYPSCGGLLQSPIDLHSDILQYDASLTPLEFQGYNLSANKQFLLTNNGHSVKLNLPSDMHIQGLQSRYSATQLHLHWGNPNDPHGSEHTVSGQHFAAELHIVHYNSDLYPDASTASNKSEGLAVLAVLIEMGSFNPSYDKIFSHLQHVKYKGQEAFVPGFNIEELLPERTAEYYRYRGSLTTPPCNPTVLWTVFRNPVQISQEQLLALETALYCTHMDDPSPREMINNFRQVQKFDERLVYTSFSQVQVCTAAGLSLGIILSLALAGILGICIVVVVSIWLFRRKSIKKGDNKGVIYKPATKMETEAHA

Carbonic anhydrase 2 = Carbonic anhydrase 2 (Homo sapiens, UniProt P00918); assay: Inhibition of recombinant human carbonic anhydrase 2 incubated for 10 mins prior to testing measured for 5 to 10 secs by phenol red-based stopped-flow CO2 hydration assay
Carbonic anhydrase 1 = Carbonic anhydrase 1 (Homo sapiens, UniProt P00915); assay: Inhibition of recombinant human carbonic anhydrase 1 incubated for 10 mins prior to testing measured for 5 to 10 secs by phenol red-based stopped-flow CO2 hydration assay
Sequence of Carbonic anhydrase 1 (P00915 whole entry): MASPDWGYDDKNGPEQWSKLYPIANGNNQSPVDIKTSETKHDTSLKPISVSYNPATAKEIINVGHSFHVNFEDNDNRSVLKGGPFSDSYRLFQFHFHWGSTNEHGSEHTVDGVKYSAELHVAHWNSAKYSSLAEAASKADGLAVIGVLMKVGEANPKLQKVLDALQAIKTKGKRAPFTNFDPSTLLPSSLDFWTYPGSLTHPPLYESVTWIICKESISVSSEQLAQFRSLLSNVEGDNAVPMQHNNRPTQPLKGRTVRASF

Compound | Ki (Carbonic anhydrase 9) [µM] | Ki (Carbonic anhydrase 12) [µM] | Ki (Carbonic anhydrase 2) [µM] | Ki (Carbonic anhydrase 1) [µM]
NS(=O)(=O)c1ccc(-c2nnc(SCC(=O)c3cccc([N+](=O)[O-])c3)o2)cc1 | 0.566 | 0.577 | 0.0585 | 0.669
NS(=O)(=O)c1ccc(-c2nnc(SCC(=O)Nc3ccc(Br)cc3)o2)cc1 | 0.671 | 0.751 | 0.848 | 3.9
NS(=O)(=O)c1ccc(-c2nnc(SCC(=O)Nc3ccc(Cl)cc3)o2)cc1 | 0.757 | 0.838 | 0.096 | 2.08
NS(=O)(=O)c1ccc(-c2nnc(SCC(=O)c3ccc([N+](=O)[O-])cc3)o2)cc1 | 0.633 | 0.294 | 0.0295 | 0.0707
NS(=O)(=O)c1ccc(-c2nnc(SCC(=O)c3ccc(F)cc3)o2)cc1 | 1.98 | 2.24 | 0.0694 | 0.744
NS(=O)(=O)c1ccc(-c2nnc(SCC(=O)Nc3cccc([N+](=O)[O-])c3)o2)cc1 | 0.0163 | 0.257 | 0.0079 | 0.0732
COc1ccc(NC(=O)CSc2nnc(-c3ccc(S(N)(=O)=O)cc3)o2)cc1 | 0.029 | 0.266 | 0.0536 | 2.92
NS(=O)(=O)c1ccc(-c2nnc(SCC(=O)c3cccc(Cl)c3)o2)cc1 | 1.25 | 0.383 | 0.0592 | 0.544
NS(=O)(=O)c1ccc(-c2nnc(SCC(=O)Nc3ccc([N+](=O)[O-])cc3)o2)cc1 | 0.256 | 0.737 | 0.0731 | 0.762
NS(=O)(=O)c1ccc(-c2nnc(SCC(=O)Nc3ccccc3)o2)cc1 | 0.111 | 0.366 | 0.0611 | 0.542
NS(=O)(=O)c1ccc(-c2nnc(SCC(=O)Nc3cccc(Cl)c3)o2)cc1 | 0.0508 | 0.4 | 0.0819 | 0.501

The remaining compounds from weak to strong by Ki (Carbonic anhydrase 9), led by results:

Ki (Carbonic anhydrase 9) [µM] | Ki (Carbonic anhydrase 12) [µM] | Ki (Carbonic anhydrase 2) [µM] | Ki (Carbonic anhydrase 1) [µM] | Compound
1.75 | 0.636 | 0.067 | 0.617 | NS(=O)(=O)c1ccc(-c2nnc(SCC(=O)c3ccc(Br)cc3)o2)cc1
1.33 | 0.492 | 0.0796 | 0.47 | COc1cccc(C(=O)CSc2nnc(-c3ccc(S(N)(=O)=O)cc3)o2)c1
1.32 | 0.84 | 0.0673 | 0.595 | NS(=O)(=O)c1ccc(-c2nnc(SCC(=O)c3ccc(Cl)cc3)o2)cc1
0.757 | 0.265 | 0.347 | 1.36 | NS(=O)(=O)c1ccc(-c2nnc(SCC(=O)c3ccccc3)o2)cc1
0.449 | 3.62 | 0.158 | 3.81 | COc1ccc(C(=O)CSc2nnc(-c3ccc(S(N)(=O)=O)cc3)o2)cc1
0.201 | 0.231 | 0.148 | 3.32 | Cc1ccc(C(=O)CSc2nnc(-c3ccc(S(N)(=O)=O)cc3)o2)cc1
0.163 | 0.588 | 0.0857 | 0.711 | NS(=O)(=O)c1ccc(-c2nnc(SCC(=O)Nc3ccc(F)cc3)o2)cc1
0.0741 | 0.263 | 0.0787 | 0.739 | Cc1ccc(NC(=O)CSc2nnc(-c3ccc(S(N)(=O)=O)cc3)o2)cc1
0.0531 | 0.69 | 0.0698 | 0.673 | COc1cccc(NC(=O)CSc2nnc(-c3ccc(S(N)(=O)=O)cc3)o2)c1
